In ChEMBL document CHEMBL3784920, “Synthesis and Pharmacological Evaluation of Novel Adenine-Hydrogen Sulfide Slow Release Hybrids Designed as Multitarget Cardioprotective Agents” (J Med Chem, 2016):
Calls of active or inactive are those of the source. The rule behind the calls is not given here.

What was measured:
Oryctolagus cuniculus [1] = experiment: Toxicity in New Zealand white rabbit assessed as heart weight at 1.79 umol/kg, administered as single bolus dose (reference value: 7.2 +/- 0.3 g); assay type: organism-based; settings: in vivo
Oryctolagus cuniculus [2] = experiment: Toxicity in New Zealand white rabbit assessed as baseline heart rate at 1.79 umol/kg, administered as single bolus dose (reference value: 269 +/- 10 bpm); assay type: organism-based; settings: in vivo
Oryctolagus cuniculus [3] = experiment: Toxicity in New Zealand white rabbit myocardial ischemia/reperfusion injury model assessed as heart rate at 1.79 umol/kg, administered as single bolus dose at 20 mins of sustained ischemia (reference value: 276 +/- 9 bpm); assay type: organism-based; settings: in vivo
Oryctolagus cuniculus [4] = experiment: Toxicity in New Zealand white rabbit myocardial ischemia/reperfusion injury model assessed as heart rate at 1.79 umol/kg, administered as single bolus dose at 180 mins of reperfusion (reference value: 254 +/- 11 bpm); assay type: organism-based; settings: in vivo, 3 h
Oryctolagus cuniculus [5] = experiment: Toxicity in New Zealand white rabbit assessed as baseline mean blood pressure at 1.79 umol/kg, administered as single bolus dose (reference value: 74 +/- 5 mmHg); assay type: organism-based; settings: in vivo
Oryctolagus cuniculus [6] = experiment: Toxicity in New Zealand white rabbit myocardial ischemia/reperfusion injury model assessed as mean blood pressure at 1.79 umol/kg, administered as single bolus dose at 20 mins of sustained ischemia (reference value: 64 +/- 5 mmHg); assay type: organism-based; settings: in vivo
Oryctolagus cuniculus [7] = experiment: Toxicity in New Zealand white rabbit myocardial ischemia/reperfusion injury model assessed as mean blood pressure at 1.79 umol/kg, administered as single bolus dose at 180 mins of reperfusion (reference value: 60 +/- 4 mmHg); assay type: organism-based; settings: in vivo, iv, 3 h
[8] = Induction of H2S release in potassium phosphate buffer at pH 7.4 after 15 mins by methylene-blue assay; assay type: physicochemical; settings: pH 7.4, 0.25 h
[9] = Induction of H2S release in potassium phosphate buffer at 20 uM at pH 7.4 by Amperometric method; assay type: physicochemical; settings: pH 7.4, 20 µM
[10] = Induction of H2S release in potassium phosphate buffer at 100 uM at pH 7.4 by Amperometric method; assay type: physicochemical; settings: pH 7.4, 100 µM
[11] = Induction of H2S release in potassium phosphate buffer at 100 uM at pH 7.4 by Amperometric method in presence of glutathione; assay type: physicochemical; settings: pH 7.4, 100 µM
[12] = Induction of H2S release in ammonium carbonate buffer at 100 uM at pH 7.4 by mass spectrometry; assay type: physicochemical; settings: pH 7.4, 100 µM
RLF-6 [13] = experiment: Induction of H2S release in RLF-6 cells assessed as cGMP accumulation at 250 uM after 5 mins by enzyme immuno assay; assay type: functional, cell-based; settings: Rattus norvegicus
Oryctolagus cuniculus [14] = experiment: Toxicity in New Zealand white rabbit assessed as heart weight at 1.79 umol/kg, administered as single bolus dose in presence of non selective adenosine receptor inhibitor SPT (reference value: 7.2 +/- 0.3 g); assay type: organism-based; settings: in vivo
Oryctolagus cuniculus [15] = experiment: Toxicity in New Zealand white rabbit assessed as baseline heart rate at 1.79 umol/kg, administered as single bolus dose in presence of non selective adenosine receptor inhibitor SPT (reference value: 269 +/- 10 bpm); assay type: organism-based; settings: in vivo
Oryctolagus cuniculus [16] = experiment: Toxicity in New Zealand white rabbit myocardial ischemia/reperfusion injury model assessed as heart rate at 1.79 umol/kg, administered as single bolus dose at 20 mins of sustained ischemia in presence of non selective adenosine receptor inhibitor SPT (reference value: 276 +/- 9 bpm); assay type: organism-based; settings: in vivo
Oryctolagus cuniculus [17] = experiment: Toxicity in New Zealand white rabbit myocardial ischemia/reperfusion injury model assessed as heart rate at 1.79 umol/kg, administered as single bolus dose at 180 mins of reperfusion in presence of non selective adenosine receptor inhibitor SPT (reference value: 254 +/- 11 bpm); assay type: organism-based; settings: in vivo, 3 h
Oryctolagus cuniculus [18] = experiment: Toxicity in New Zealand white rabbit assessed as baseline mean blood pressure at 1.79 umol/kg, administered as single bolus dose in presence of SPT (reference value: 74 +/- 5 mmHg); assay type: organism-based; settings: in vivo
Oryctolagus cuniculus [19] = experiment: Toxicity in New Zealand white rabbit myocardial ischemia/reperfusion injury model assessed as mean blood pressure at 1.79 umol/kg, administered as single bolus dose at 20 mins of sustained ischemia in presence of non selective adenosine receptor inhibitor SPT (reference value: 64 +/- 5 mmHg); assay type: organism-based; settings: in vivo, iv
Oryctolagus cuniculus [20] = experiment: Toxicity in New Zealand white rabbit myocardial ischemia/reperfusion injury model assessed as mean blood pressure at 1.79 umol/kg, administered as single bolus dose at 180 mins of reperfusion in presence of SPT (reference value: 60 +/- 4 mmHg); assay type: organism-based; settings: in vivo, 3 h
Oryctolagus cuniculus [21] = experiment: Cardioprotective activity in New Zealand white rabbit myocardial ischemia/reperfusion injury model assessed as reduction in infarct size at 1.79 umol/kg, administered as single bolus dose at 20 mins before sustained ischemia by TTC staining in presence of non selective adenosine receptor inhibitor SPT (reference value: 47.9 +/- 0.7 %); assay type: functional, Myocardium; design: scale not given: the % may be the effect or the level left
Oryctolagus cuniculus [22] = experiment: Increase in VASP phosphorylation at Ser239 in tissue from ischemic area of myocardium in New Zealand white rabbit myocardial ischemia/reperfusion injury model at 1.79 umol/kg administered as single bolus dose at 10th min of reperfusion by Western blot analysis; assay type: functional, organism-based
Oryctolagus cuniculus [23] = experiment: Increase in PLN phosphorylation at Ser16/Thr17 in tissue from ischemic area of myocardium in New Zealand white rabbit myocardial ischemia/reperfusion injury model at 1.79 umol/kg administered as single bolus dose at 10th min of reperfusion by Western blot analysis relative to control; assay type: functional, organism-based
[24] = Induction of H2S release in ammonium carbonate buffer at 100 uM at pH 7.4 by mass spectrometry in presence of glutathione; assay type: physicochemical; settings: pH 7.4, 100 µM
Oryctolagus cuniculus [25] = experiment: Cardioprotective activity in New Zealand white rabbit myocardial ischemia/reperfusion injury model assessed as reduction in infarct size at 1.79 umol/kg, administered as single bolus dose at 20th min of sustained ischemia by TTC staining (reference value: 47.9 +/- 0.7 %); assay type: functional, Myocardium; design: scale not given: the % may be the effect or the level left
RLF-6 [26] = experiment: Induction of H2S release in RLF-6 cells assessed as cGMP accumulation after 5 mins by enzyme immuno assay; assay type: functional, cell-based; settings: Rattus norvegicus

| Compound | Activity (Oryctolagus cuniculus [1]) [g] | Activity (Oryctolagus cuniculus [2]) [bpm] | Activity (Oryctolagus cuniculus [3]) [bpm] | Activity (Oryctolagus cuniculus [4]) [bpm] | Activity (Oryctolagus cuniculus [5]) [mmHg] | Activity (Oryctolagus cuniculus [6]) [mmHg] | Activity (Oryctolagus cuniculus [7]) [mmHg] | Activity [8] | Activity (RLF-6 [13]) | Activity (Oryctolagus cuniculus [25]) [%] | further results |
| --- | --- | --- | --- | --- | --- | --- | --- | --- | --- | --- | --- |
| [Na+].[SH-] [SODIUM HYDROSULFIDE] | 7.1 | 273 | 268 | 262 | 81 | 76 | 68 | – | – | – | – |
| Nc1ncnc2c1ncn2CCCCOc1ccc(-c2cc(=S)ss2)cc1 | – | – | – | – | – | – | – | Dose-dependent effect | – | – | – |
| NC(=S)c1ccc(OC[C@H]2O[C@@H](n3cnc4c(N)ncnc43)[C@H](O)[C@@H]2O)cc1 | 7.6 | 258 | 256 | 256 | 82 | 83 | 76 | Dose-dependent effect | Active | 20.1 | Activity [9]: Not Active; Activity [10]: Active; Activity [11]: Not Active; Activity [12]: 0.8 µM/min; Activity (Oryctolagus cuniculus [14]): 7.2 g; Activity (Oryctolagus cuniculus [15]): 262 bpm; Activity (Oryctolagus cuniculus [16]): 260 bpm; Activity (Oryctolagus cuniculus [17]): 260 bpm; Activity (Oryctolagus cuniculus [18]): 86 mmHg; Activity (Oryctolagus cuniculus [19]): 71 mmHg; Activity (Oryctolagus cuniculus [20]): 77 mmHg; Activity (Oryctolagus cuniculus [21]): 18.3%; Activity (Oryctolagus cuniculus [22]): Active; Activity (Oryctolagus cuniculus [23]): Active; Activity [24]: Not Active |
| NC(=S)c1ccc(O)cc1 | – | – | – | – | – | – | – | – | Active | 24.9 | – |
| Nc1ncnc2c1ncn2[C@@H]1O[C@H](CO)[C@@H](O)[C@H]1O | – | – | – | – | – | – | – | – | – | – | Activity (RLF-6 [26]): inactive |
